Laboratory results as given in patent US20080299140A1, “Immunogenic Composition and Peptide Sequences for Prevention and Treatment of an Hsv Condition” (priority 2002, published 2008).
Where a chain is given by its changes, count along the chain named. Like-named read-outs stand apart in the source and are kept apart here.

Key:
[1] = target: T1, DRB5=HLA-DR(α1*0101,α5*0101) (Homo sapiens, UniProt P01903+Q30154); test: biochemical; format: binding; conditions: Table V; […]; read-out: IC50 DRB5
T1 construct: endogenous in cells; host or cells: EBV homozygous human B cell line
T1 sequence (Q30154 30-266, other chains not shown): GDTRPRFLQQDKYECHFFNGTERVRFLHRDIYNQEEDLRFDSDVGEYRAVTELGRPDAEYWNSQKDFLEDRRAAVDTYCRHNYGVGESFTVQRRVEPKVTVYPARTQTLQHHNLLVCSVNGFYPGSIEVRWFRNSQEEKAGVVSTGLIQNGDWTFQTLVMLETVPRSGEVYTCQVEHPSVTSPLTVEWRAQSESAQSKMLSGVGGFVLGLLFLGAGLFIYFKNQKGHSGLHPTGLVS

[2] = target: T2, DR4=HLA-DR(α1*0101,α1*0401) (Homo sapiens, UniProt P01903+P01911, A100K/A169T/F76Y/I96L/K127E/L162R/M171V/N62H/P40V/Q125Y/R42H/S133A/S149N/S66Y/V115G/V209L/W38E); test: biochemical; format: binding
T2 construct: endogenous in cells; host or cells: BOLETH (EBV homozygous B cell line)

[3] = target: T3, DRB3=HLA-DR(α1*0101,α3*0101) (Homo sapiens, UniProt P01903+P79483); test: HLA-DR specific binding assay, DRB3 (DR52)
T3 construct: endogenous in cells; host or cells: STEILIN or 0206AD (both typed DRB3*0101)
T3 sequence (P79483 30-266, other chains not shown): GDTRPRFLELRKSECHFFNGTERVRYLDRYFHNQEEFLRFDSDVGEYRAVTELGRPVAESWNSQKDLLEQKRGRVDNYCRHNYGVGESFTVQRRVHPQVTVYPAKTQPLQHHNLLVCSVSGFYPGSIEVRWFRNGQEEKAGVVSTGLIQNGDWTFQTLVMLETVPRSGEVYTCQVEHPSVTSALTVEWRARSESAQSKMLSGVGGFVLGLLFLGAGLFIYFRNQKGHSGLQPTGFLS

[4] = target: T4, DR13=HLA-DR(α1*0101,α1*1301) (Homo sapiens, UniProt P01903+P01911, A100E/A169T/K41T/L162R/M171V/P40S/Q125H/Q178H/Q39Y/Q99D/R42S/S66N/T262R/W38E/Y61H); test: HLA-DR specific binding assay, DR13
T4 construct: endogenous in cells; host or cells: 0206AD (EBV homozygous B cell line)

[5] = target: T5, DP402 DP (α1*0101, α1*0402) (Homo sapiens, UniProt P04440+P20036, A65V/A84D/A85E/L207M); test: biochemical; format: binding
T5 sequence (P20036 29-260): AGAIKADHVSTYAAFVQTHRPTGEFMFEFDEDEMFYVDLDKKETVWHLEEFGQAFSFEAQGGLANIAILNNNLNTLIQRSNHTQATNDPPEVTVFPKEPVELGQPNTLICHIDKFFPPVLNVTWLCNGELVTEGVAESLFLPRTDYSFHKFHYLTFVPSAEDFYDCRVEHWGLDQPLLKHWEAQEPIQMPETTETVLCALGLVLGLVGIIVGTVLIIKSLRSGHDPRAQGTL
T5 sequence (P04440 30-258 A65V/A84D/A85E): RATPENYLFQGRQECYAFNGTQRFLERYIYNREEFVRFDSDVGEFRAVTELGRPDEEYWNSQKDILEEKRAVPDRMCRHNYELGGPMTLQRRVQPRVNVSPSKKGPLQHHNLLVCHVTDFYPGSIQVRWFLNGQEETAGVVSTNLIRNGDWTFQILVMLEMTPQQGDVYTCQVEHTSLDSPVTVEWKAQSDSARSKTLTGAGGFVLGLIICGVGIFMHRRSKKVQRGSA

[6] = target: T6, DR7=HLA-DR(α1*0101,α1*0701) (Homo sapiens, UniProt P01903+P01911, A100R/A102G/A103Q/D57E/D86V/E43K/F76Y/K127E/L162R/M171V/P40G/Q125H/Q99D/R33Q/R42Y/R54Q/S133A/S66F/T210M/V115G/Y107V/Y59L/Y89S); test: HLA-DR specific binding assay, DR7
T6 construct: endogenous in cells; host or cells: EBV homozygous human B cell line

[7] = target: T7, DR15=HLA-DR(α1*0101,α1*1501) (Homo sapiens, UniProt P01903+P01911); test: HLA-DR specific binding assay, DR15
T7 construct: endogenous in cells; host or cells: EBV homozygous human B cell line

[8] = tested on: HLA-DR and HLA-DP molecules; test: MHC class II binding assays, panel of twelve HLA class II molecules (number of alleles bound); conditions: number of the twelve class II MHC alleles bound; title: Threshold 600 nM/5 alleles
[9] = target: T8, DR11=HLA-DR(α1*0101,α1*1101) (Homo sapiens, UniProt P01903+P01911, A100R/A169T/A87E/I96F/K41T/L162R/M171V/P40S/Q125H/Q178H/Q39Y/Q99D/R42S/S66Y/T262R/V115G/W38E); test: biochemical; format: binding
T8 construct: endogenous in cells; host or cells: SWEIG (EBV homozygous B cell line)

[10] = target: T9, DR1=HLA-DR(α1*0101,α1*0101) (Homo sapiens, UniProt P01903+P01911, A100R/D57E/F55L/F60I/F76Y/I96L/L162R/M171V/P40L/Q125E/R42F/V115G/Y59C); test: biochemical; format: binding; conditions: […]
T9 construct: endogenous in cells; host or cells: EBV homozygous human B cell line

[11] = target: T10, DP401=HLA-DP(α1*0101,α1*0401) (Homo sapiens, UniProt P04440+P20036); test: biochemical; format: binding
T10 sequence (P20036 32-260 limits assumed): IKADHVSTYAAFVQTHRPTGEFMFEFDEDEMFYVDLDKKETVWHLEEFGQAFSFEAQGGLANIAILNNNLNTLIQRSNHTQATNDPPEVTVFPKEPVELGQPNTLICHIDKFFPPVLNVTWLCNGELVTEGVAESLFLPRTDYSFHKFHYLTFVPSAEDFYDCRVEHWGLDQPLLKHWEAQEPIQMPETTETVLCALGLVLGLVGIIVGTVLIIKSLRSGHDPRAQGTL
T10 sequence (P04440 30-258): T5 sequence (P04440 30-258 A65V/A84D/A85E) with V36A, D55A, E56A

[12] = target: T11, DR3=HLA-DR(α1*0101,α1*0301) (Homo sapiens, UniProt P01903+P01911, A100K/A102G/A103R/A169T/F55Y/I96L/K41T/L162R/M171V/P40S/Q125H/Q178H/Q39Y/R42S/S66N/T106N/T262R/W38E/Y61H); test: HLA-DR specific binding assay, DR3
T11 construct: endogenous in cells; host or cells: STEILIN (EBV homozygous B cell line)

[13] = target: T12, DRB4=HLA-DR(α1*0101,α4*0101) (Homo sapiens, UniProt P01903+P13762, G164S); test: HLA-DR specific binding assay, DRB4 (DR53)
T12 construct: endogenous in cells

[14] = Class II MHC allele DR4, read-out: IC50, DR4
[15] = Table V, […], read-out: IC50 DR4
[16] = IC50, DRD3, Class II MHC allele DRD3 (so in the source)
[17] = Class II MHC allele DR11, read-out: IC50, DR11
[18] = Table V, […], read-out: IC50 DR11
[19] = Class II MHC allele DR1, read-out: IC50, DR1
[20] = IC50, DR3, Class II MHC allele DR3

Row | SMILES | IC50 [1] | IC50 [2, 14] | IC50 [2, 15] | IC50 [3, 16] | IC50 ([3]; IC50 DRB3, Table V, […]) | IC50 [4] | IC50 ([5]; Class II MHC allele DP402) | IC50 ([5]; Table V, […]) | IC50 [6] | IC50 [7] | Range [8] | IC50 [9, 17] | IC50 [9, 18] | IC50 ([10]; Table V, read-out: IC50 DR1) | IC50 [10, 19] | IC50 ([11]; Class II MHC allele DP401) | IC50 ([11]; Table V, […]) | IC50 [12, 20] | IC50 ([12]; IC50 DR3, Table V, […]) | IC50 [13] | further results
1 | CC[C@H](C)[C@H](NC(=O)[C@H](CCSC)NC(=O)[C@H](CCC(=O)O)NC(=O)[C@H](CCCNC(=N)N)NC(=O)[C@H](C)NC(=O)[C@H](CCC(=O)O)NC(=O)[C@H](C)NC(=O)[C@H](CC(C)C)NC(=O)[C@@H](N)CCCCN)C(=O)N[C@@H](CCCNC(=N)N)C(=O)N[C@@H](Cc1ccc(O)cc1)C(=O)N[C@@H](CCSC)C(=O)N[C@@H](C)C(=O)N[C@@H](CC(C)C)C(=O)N[C@H](C(=O)N[C@@H](CO)C(=O)N[C@@H](C)C(=O)N[C@@H](CCSC)C(=O)N[C@@H](CCC(=O)O)C(=O)N[C@@H](CCCNC(=N)N)C(=O)N[C@H](C(=O)N[C@@H](CCC(=O)O)C(=O)N[C@@H](Cc1c[nH]cn1)C(=O)N[C@@H](CCCCN)C(=O)N[C@@H](C)C(=O)N[C@@H](CCCCN)C(=O)N[C@@H](CCCCN)C(=O)N[C@@H](CCCCN)C(=O)NCC(=O)N[C@H](C(=O)N[C@@H](CO)C(=O)N[C@@H](C)C(=O)O)[C@@H](C)O)[C@@H](C)O)C(C)C [HSV 1] | 6 nM | 37 nM | 37 nM | > 100000 nM | > 100000 nM | 284 nM | 240 nM | 240 nM | 296 nM | 3 nM | 10 | 13 nM | 13 nM | 6 nM | 6 nM | 1610 nM | 1610 nM | 995 nM | 995 nM | 43 nM | –
2 | CSCC[C@H](NC(=O)[C@@H](NC(=O)[C@H](Cc1ccc(O)cc1)NC(=O)[C@H](CCCNC(=N)N)NC(=O)[C@@H](N)Cc1ccccc1)C(C)C)C(=O)N[C@@H](CCCNC(=N)N)C(=O)N[C@@H](CC(C)C)C(=O)N[C@@H](CCC(N)=O)C(=O)N[C@@H](CO)C(=O)N[C@@H](CC(N)=O)C(=O)N1CCC[C@H]1C(=O)N[C@@H](CCSC)C(=O)N[C@@H](CCCCN)C(=O)N[C@@H](C)C(=O)N[C@@H](CC(C)C)C(=O)N[C@@H](Cc1ccc(O)cc1)C(=O)N1CCC[C@H]1C(=O)N[C@@H](CC(C)C)C(=O)N[C@H](C(=O)N[C@H](C(=O)N[C@@H](CCCCN)C(=O)N[C@@H](CCC(=O)O)C(=O)N[C@@H](CC(C)C)C(=O)N[C@@H](CCCCN)C(=O)N[C@@H](CC(N)=O)C(=O)N1CCC[C@H]1C(=O)N[C@H](C(=O)N[C@@H](CC(N)=O)C(=O)N1CCC[C@H]1C(=O)N[C@@H](CC(=O)O)C(=O)N[C@@H](C)C(=O)N[C@@H](CO)C(=O)NCC(=O)N[C@@H](CCC(=O)O)C(=O)NCC(=O)O)[C@@H](C)O)[C@@H](C)O)[C@@H](C)O [HSV 8] | 2 nM | 12 nM | 12 nM | 55000 nM | 55000 nM | 314 nM | 32 nM | 32 nM | 20 nM | 3 nM | 10 | 4 nM | 4 nM | 2 nM | 2 nM | 107 nM | 107 nM | 4780 nM | 4780 nM | 232 nM | –
3 | CSCC[C@H](NC(=O)[C@H](CCCCN)NC(=O)[C@H](CC(C)C)NC(=O)[C@H](CO)NC(=O)[C@H](C)NC(=O)[C@H](CC(=O)O)NC(=O)[C@@H](NC(=O)[C@H](CC(C)C)NC(=O)[C@H](C)NC(=O)[C@H](Cc1ccc(O)cc1)NC(=O)[C@@H](N)CCCCN)C(C)C)C(=O)N[C@@H](C)C(=O)N[C@@H](CC(=O)O)C(=O)N1CCC[C@H]1C(=O)N[C@@H](CC(N)=O)C(=O)N[C@@H](CCCNC(=N)N)C(=O)N[C@@H](Cc1ccccc1)C(=O)N[C@@H](CCCNC(=N)N)C(=O)NCC(=O)N[C@@H](CCCCN)C(=O)N[C@@H](CC(=O)O)C(=O)N[C@@H](CC(C)C)C(=O)N1CCC[C@H]1C(=O)O [HSV 29] | 8 nM | 82 nM | 82 nM | 1400 nM | 1400 nM | > 100000 nM | 1630 nM | 1630 nM | 894 nM | 24500 nM | 3 | 5250 nM | 5250 nM | 1230 nM | 1230 nM | 17500 nM | 17500 nM | 120 nM | 120 nM | 52500 nM | IC50 ([4]; read-out: IC50, DR13, Class II MHC allele DR13): > 100000 nM
